Test results reported in patent US20260132132A1, “3A,4,5,6-TETRAHYDRO-1 H-PYRAZOLO[3,4-C]PYRIDIN-7(7AH)-ONE DERIVATIVES AS FACTOR XIIA INHIBITORS” (KALVISTA PHARMACEUTICALS LIMITED, priority 2022, published 2026).

Tests used:
FXa = FXa (Homo sapiens, UniProt P00742); experiment: Related protease inhibition: FXa, fluorogenic substrate; format: biochemical; settings: fluorogenic substrate at Km, 25° C.; H1-H3 = % activity at 40 μM
Description: Human serine protease enzyme Plasma Kallikrein, KLK1, FXa, Plasmin, Thrombin and Trypsin were assayed for enzymatic activity using an appropriate fluorogenic substrate at Km concentration, FXIa at fixed substrate concentration of 100 μM and various concentrations of the test compound.

[1] = target: T1, Human Factor XIIa (hFXIIa) (Homo sapiens, UniProt P00748); experiment: Determination of Human Factor XIIa (hFXIIa) inhibition, fluorogenic substrate IC50 assay; format: biochemical; settings: fluorogenic substrate H-DPro-Phe-Arg-AFC at Km, 25° C., read-out: Human FXIIa IC50
T1 construct: purchased Enzyme Research Laboratories
T1 sequence (P00748 373-615 limits assumed): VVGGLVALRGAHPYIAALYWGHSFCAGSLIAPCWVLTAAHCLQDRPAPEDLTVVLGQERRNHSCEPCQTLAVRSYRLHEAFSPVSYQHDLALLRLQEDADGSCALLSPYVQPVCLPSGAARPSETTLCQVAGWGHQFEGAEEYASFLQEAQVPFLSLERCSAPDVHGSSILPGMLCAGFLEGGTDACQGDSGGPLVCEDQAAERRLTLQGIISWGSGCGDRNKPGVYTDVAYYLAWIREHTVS
T1 sequence (P00748 20-372 partner limits assumed): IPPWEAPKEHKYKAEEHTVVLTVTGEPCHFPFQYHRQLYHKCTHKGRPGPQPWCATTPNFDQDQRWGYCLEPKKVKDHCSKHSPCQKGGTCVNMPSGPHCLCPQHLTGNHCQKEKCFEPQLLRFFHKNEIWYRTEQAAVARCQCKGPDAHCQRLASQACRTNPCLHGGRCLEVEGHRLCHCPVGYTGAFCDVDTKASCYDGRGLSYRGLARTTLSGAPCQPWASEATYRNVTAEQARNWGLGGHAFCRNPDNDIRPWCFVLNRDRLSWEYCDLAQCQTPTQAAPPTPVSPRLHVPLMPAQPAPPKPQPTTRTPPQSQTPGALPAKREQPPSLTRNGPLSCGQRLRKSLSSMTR
Description: Determination of Human Factor XIIa (hFXIIa) inhibition
The Km for the cleavage of the substrate by hFXIIa was determined by standard transformation of the Michaelis-Menten equation, with subsequent inhibition assays performed at substrate Km concentration.

Chain of FXa (P00742 235-488 limits assumed): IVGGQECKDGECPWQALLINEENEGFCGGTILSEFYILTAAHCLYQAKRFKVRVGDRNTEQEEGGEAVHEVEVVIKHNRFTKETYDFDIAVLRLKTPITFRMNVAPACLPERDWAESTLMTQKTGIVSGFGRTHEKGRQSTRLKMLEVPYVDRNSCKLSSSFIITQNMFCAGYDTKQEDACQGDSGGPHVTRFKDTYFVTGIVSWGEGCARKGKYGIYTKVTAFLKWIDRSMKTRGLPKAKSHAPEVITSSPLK
Chain of FXa (P00742 41-179 partner limits assumed): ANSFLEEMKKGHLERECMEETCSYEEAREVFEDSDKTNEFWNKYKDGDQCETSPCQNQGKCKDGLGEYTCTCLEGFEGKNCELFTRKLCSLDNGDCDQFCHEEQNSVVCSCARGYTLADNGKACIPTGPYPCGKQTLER

| IC50 (FXa) [µM] | IC50 [1] [µM] | SMILES |
| --- | --- | --- |
| 1 to 3 | 0.01 to 0.1 | Cc1cn(C)nc1CNC(=O)c1nn(-c2cccc(Cl)c2)c2c(=O)n(-c3ccc4c(c3)CN(C)CC4)c(C)nc12 [Example 3006, 1-(3-chlorophenyl)-N-((1,4-dimethyl-1H-pyrazol-3-yl)methyl)-5-methyl-6-(2-methyl-1,2,3,4-tetrahydroisoquinolin-7-yl)-7-oxo-6,7-dihydro-1H-pyrazolo[4,3-d]pyrimidine-3-carboxamide] |
| 10 to 40 | 0.1 to 0.3 | O=C(NCc1ncco1)c1nn(-c2cccc(Cl)c2)c2c1CCN(c1ccc3c(c1)CN(CCO)CC3)C2=O [Example 1151, 1-(3-chlorophenyl)-6-(2-(2-hydroxyethyl)-1,2,3,4-tetrahydroisoquinolin-7-yl)-N-(oxazol-2-ylmethyl)-7-oxo-4,5,6,7-tetrahydro-1H-pyrazolo[3,4-c]pyridine-3-carboxamide] |
| 10 to 40 | 0.01 to 0.1 | Cc1ccncc1CNC(=O)c1nn(-c2cccc(Cl)c2)c2c1CCN(c1ccc3c(c1)CN(CCO)CC3)C2=O [Example 1110, 1-(3-chlorophenyl)-6-(2-(2-hydroxyethyl)-1,2,3,4-tetrahydroisoquinolin-7-yl)-N-((4-methylpyridin-3-yl)methyl)-7-oxo-4,5,6,7-tetrahydro-1H-pyrazolo[3,4-c]pyridine-3-carboxamide] |
| > 40 | 1 to 3 | Cc1ccncc1CNC(=O)c1nn(-c2cccc(Cl)c2)c2c1CCN(c1ccc3ccn(C)c(=O)c3c1)C2=O [Example 1212, 1-(3-chlorophenyl)-6-(2-methyl-1-oxo-1,2-dihydroisoquinolin-7-yl)-N-((4-methylpyridin-3-yl)methyl)-7-oxo-4,5,6,7-tetrahydro-1H-pyrazolo[3,4-c]pyridine-3-carboxamide] |
| 3 to 10 | 0.01 to 0.1 | CCN1CCc2ccc(N3CCc4c(C(=O)NCc5cnccc5C)nn(-c5cccc(Cl)c5)c4C3=O)cc2C1 [Example 1140, 1-(3-chlorophenyl)-6-(2-ethyl-1,2,3,4-tetrahydroisoquinolin-7-yl)-N-((4-methylpyridin-3-yl)methyl)-7-oxo-4,5,6,7-tetrahydro-1H-pyrazolo[3,4-c]pyridine-3-carboxamide] |
| 10 to 40 | 0.01 to 0.1 | CCN1CCc2cc(F)c(N3CCc4c(C(=O)NCC5CC5)nn(-c5cccc(Cl)c5)c4C3=O)cc2C1 [Example 1079, 1-(3-chlorophenyl)-N-(cyclopropylmethyl)-6-(2-ethyl-6-fluoro-1,2,3,4-tetrahydroisoquinolin-7-yl)-7-oxo-4,5,6,7-tetrahydro-1H-pyrazolo[3,4-c]pyridine-3-carboxamide] |
| > 100 | 0.3 to 1 | O=C(NC1CCCCC1)c1nn(-c2cccc(Cl)c2)c2c1CCN(c1cccc(CN3CCCCC3)c1)C2=O [Example 1010, 1-(3-chlorophenyl)-N-cyclohexyl-7-oxo-6-(3-(piperidin-1-ylmethyl)phenyl)-4,5,6,7-tetrahydro-1H-pyrazolo[3,4-c]pyridine-3-carboxamide] |
| 3 to 10 | 0.01 to 0.1 | Cc1ccncc1CNC(=O)c1nn(-c2cccc(Cl)c2)c2c1CCN(c1ccc3c(c1)CN(C)CC3)C2=O [Example 1129, 1-(3-chlorophenyl)-6-(2-methyl-1,2,3,4-tetrahydroisoquinolin-7-yl)-N-((4-methylpyridin-3-yl)methyl)-7-oxo-4,5,6,7-tetrahydro-1H-pyrazolo[3,4-c]pyridine-3-carboxamide] |
| > 40 | 0.01 to 0.1 | COc1cccnc1CNC(=O)c1nn(-c2cccc(Cl)c2)c2c1CCN(c1ccc3c(c1)CN(CCO)CC3)C2=O [Example 1160, 1-(3-chlorophenyl)-6-(2-(2-hydroxyethyl)-1,2,3,4-tetrahydroisoquinolin-7-yl)-N-((3-methoxypyridin-2-yl)methyl)-7-oxo-4,5,6,7-tetrahydro-1H-pyrazolo[3,4-c]pyridine-3-carboxamide] |
| 1 to 3 | 0.01 to 0.1 | COc1ccc(CNC(=O)c2nn(-c3cccc(Cl)c3)c3c2CCN(c2ccc4c(c2)CN(C)CC4)C3=O)cn1 [Example 1135, 1-(3-chlorophenyl)-N-((6-methoxypyridin-3-yl)methyl)-6-(2-methyl-1,2,3,4-tetrahydroisoquinolin-7-yl)-7-oxo-4,5,6,7-tetrahydro-1H-pyrazolo[3,4-c]pyridine-3-carboxamide] |
| > 40 | 0.1 to 0.3 | CCN1CCc2ccc(N3CCc4c(C(=O)NCc5nn(C)cc5C)nn(-c5cccc(Cl)c5)c4C3=O)cc2C1=O [Example 1224, 1-(3-chlorophenyl)-N-((1,4-dimethyl-1H-pyrazol-3-yl)methyl)-6-(2-ethyl-1-oxo-1,2,3,4-tetrahydroisoquinolin-7-yl)-7-oxo-4,5,6,7-tetrahydro-1H-pyrazolo[3,4-c]pyridine-3-carboxamide] |
| 3 to 10 | 0.1 to 0.3 | CN1CCc2ccc(N3CCc4c(C(=O)NCC5CCCCC5)nn(-c5cccc(Cl)c5)c4C3=O)cc2C1 [Example 1023, 1-(3-chlorophenyl)-N-(cyclohexylmethyl)-6-(2-methyl-1,2,3,4-tetrahydroisoquinolin-7-yl)-7-oxo-4,5,6,7-tetrahydro-1H-pyrazolo[3,4-c]pyridine-3-carboxamide] |
| > 40 | 0.3 to 1 | C[C@H](NC(=O)c1nn(-c2cccc(Cl)c2)c2c1CCN(c1ccc3c(c1)C(=O)N(C)CC3)C2=O)C(=O)O [Example 1391, (1-(3-chlorophenyl)-6-(2-methyl-1-oxo-1,2,3,4-tetrahydroisoquinolin-7-yl)-7-oxo-4,5,6,7-tetrahydro-1H-pyrazolo[3,4-c]pyridine-3-carbonyl)-L-alanine] |
| 10 to 40 | 0.3 to 1 | CN1CCc2ccc(N3CCc4c(C(=O)NCC5CCOC5)nn(-c5cccc(Cl)c5)c4C3=O)cc2C1 (stereo not shown) [Example 1026, 1-(3-chlorophenyl)-6-(2-methyl-1,2,3,4-tetrahydroisoquinolin-7-yl)-7-oxo-N-((tetrahydrofuran-3-yl)methyl)-4,5,6,7-tetrahydro-1H-pyrazolo[3,4-c]pyridine-3-carboxamide] |
| 3 to 10 | 0.1 to 0.3 | CCOC(=O)c1nn(-c2cccc(Cl)c2)c2c(=O)n(-c3ccc4c(c3)C(=O)N(CCO)CC4)c(C)nc12 [Example 3019, ethyl 1-(3-chlorophenyl)-6-(2-(2-hydroxyethyl)-1-oxo-1,2,3,4-tetrahydroisoquinolin-7-yl)-5-methyl-7-oxo-6,7-dihydro-1H-pyrazolo[4,3-d]pyrimidine-3-carboxylate] |
| 10 to 40 | 0.3 to 1 | O=C(OCc1ccccc1)c1nn(-c2cccc(Cl)c2)c2c1CCN(c1cccc(CN3CCCCC3)c1)C2=O [Example 1006, benzyl 1-(3-chlorophenyl)-7-oxo-6-(3-(piperidin-1-ylmethyl)phenyl)-4,5,6,7-tetrahydro-1H-pyrazolo[3,4-c]pyridine-3-carboxylate] |
| > 40 | 0.01 to 0.1 | Cc1cc(C)c(CNC(=O)c2nn(-c3cccc(Cl)c3)c3c2CCN(c2ccc4c(c2)C(=O)N(CCO)CC4)C3=O)cn1 [Example 1256, 1-(3-chlorophenyl)-N-((4,6-dimethylpyridin-3-yl)methyl)-6-(2-(2-hydroxyethyl)-1-oxo-1,2,3,4-tetrahydroisoquinolin-7-yl)-7-oxo-4,5,6,7-tetrahydro-1H-pyrazolo[3,4-c]pyridine-3-carboxamide] |
